Experimental data as given in ChEMBL document CHEMBL3991601, “The target landscape of clinical kinase drugs” (Science, 2017).
Active and inactive are the calls of the source.

What was measured:
[1] = target: Dual specificity protein kinase CLK3 (Homo sapiens, UniProt P49761); format: subcellular, K-562, COLO 205, SK-N-BE(2) and MV-4-11, Cell lysate; settings: read-out: Kd apparent
[2] = target: Uncharacterized aarF domain-containing protein kinase 5 (Homo sapiens, UniProt Q3MIX3)
[3] = target: Cell division cycle 7-related protein kinase (Homo sapiens, UniProt O00311)
[4] = target: Cyclin-dependent kinase 2 (Homo sapiens, UniProt P24941)
[5] = target: Dual specificity protein kinase CLK2 (Homo sapiens, UniProt P49760)
[6] = target: Epidermal growth factor receptor (Homo sapiens, UniProt P00533)
[7] = target: T1, Eukaryotic translation initiation factor 5B (Homo sapiens, UniProt O60841)
T1 sequence (O60841 whole entry): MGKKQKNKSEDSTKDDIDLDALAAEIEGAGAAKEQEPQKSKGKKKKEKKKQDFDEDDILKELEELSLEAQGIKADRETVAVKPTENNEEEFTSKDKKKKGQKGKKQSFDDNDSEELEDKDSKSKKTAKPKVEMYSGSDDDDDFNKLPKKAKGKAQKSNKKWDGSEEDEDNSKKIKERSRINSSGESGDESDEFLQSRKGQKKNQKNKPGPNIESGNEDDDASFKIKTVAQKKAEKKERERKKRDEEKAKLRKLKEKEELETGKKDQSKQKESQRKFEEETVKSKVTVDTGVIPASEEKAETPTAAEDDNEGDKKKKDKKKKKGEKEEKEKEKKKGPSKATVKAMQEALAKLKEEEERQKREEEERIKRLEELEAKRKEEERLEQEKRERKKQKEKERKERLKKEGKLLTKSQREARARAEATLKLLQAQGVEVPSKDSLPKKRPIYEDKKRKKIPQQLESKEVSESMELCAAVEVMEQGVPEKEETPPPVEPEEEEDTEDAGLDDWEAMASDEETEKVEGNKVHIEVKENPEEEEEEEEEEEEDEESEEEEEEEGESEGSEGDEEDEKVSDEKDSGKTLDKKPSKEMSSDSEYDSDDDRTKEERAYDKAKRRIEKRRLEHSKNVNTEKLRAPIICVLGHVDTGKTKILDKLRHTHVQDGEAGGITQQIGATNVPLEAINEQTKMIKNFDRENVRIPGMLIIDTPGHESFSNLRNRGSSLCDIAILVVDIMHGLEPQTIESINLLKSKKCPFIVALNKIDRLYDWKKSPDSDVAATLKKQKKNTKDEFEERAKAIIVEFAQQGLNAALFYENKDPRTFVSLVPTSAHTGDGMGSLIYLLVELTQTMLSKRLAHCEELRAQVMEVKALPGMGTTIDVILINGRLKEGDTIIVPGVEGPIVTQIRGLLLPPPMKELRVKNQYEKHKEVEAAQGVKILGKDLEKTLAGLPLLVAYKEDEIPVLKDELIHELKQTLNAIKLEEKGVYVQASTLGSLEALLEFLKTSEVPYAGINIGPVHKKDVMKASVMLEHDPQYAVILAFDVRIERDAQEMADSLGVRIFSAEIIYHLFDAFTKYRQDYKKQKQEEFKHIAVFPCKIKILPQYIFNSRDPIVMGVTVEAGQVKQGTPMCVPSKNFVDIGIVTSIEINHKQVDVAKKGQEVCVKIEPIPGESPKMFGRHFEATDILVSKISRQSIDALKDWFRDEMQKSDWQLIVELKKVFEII

[8] = target: Ephrin type-A receptor 7 (Homo sapiens, UniProt Q15375)
[9] = target: Obg-like ATPase 1 (Homo sapiens, UniProt Q9NTK5)
[10] = target: PAS domain-containing serine/threonine-protein kinase (Homo sapiens, UniProt Q96RG2)
[11] = target: Membrane-associated progesterone receptor component 1 (Homo sapiens, UniProt O00264)
[12] = target: Protein kinase C theta type (Homo sapiens, UniProt Q04759)
[13] = target: T2, Dual specificity protein kinase TTK (Homo sapiens, UniProt P33981)
T2 sequence (P33981 whole entry): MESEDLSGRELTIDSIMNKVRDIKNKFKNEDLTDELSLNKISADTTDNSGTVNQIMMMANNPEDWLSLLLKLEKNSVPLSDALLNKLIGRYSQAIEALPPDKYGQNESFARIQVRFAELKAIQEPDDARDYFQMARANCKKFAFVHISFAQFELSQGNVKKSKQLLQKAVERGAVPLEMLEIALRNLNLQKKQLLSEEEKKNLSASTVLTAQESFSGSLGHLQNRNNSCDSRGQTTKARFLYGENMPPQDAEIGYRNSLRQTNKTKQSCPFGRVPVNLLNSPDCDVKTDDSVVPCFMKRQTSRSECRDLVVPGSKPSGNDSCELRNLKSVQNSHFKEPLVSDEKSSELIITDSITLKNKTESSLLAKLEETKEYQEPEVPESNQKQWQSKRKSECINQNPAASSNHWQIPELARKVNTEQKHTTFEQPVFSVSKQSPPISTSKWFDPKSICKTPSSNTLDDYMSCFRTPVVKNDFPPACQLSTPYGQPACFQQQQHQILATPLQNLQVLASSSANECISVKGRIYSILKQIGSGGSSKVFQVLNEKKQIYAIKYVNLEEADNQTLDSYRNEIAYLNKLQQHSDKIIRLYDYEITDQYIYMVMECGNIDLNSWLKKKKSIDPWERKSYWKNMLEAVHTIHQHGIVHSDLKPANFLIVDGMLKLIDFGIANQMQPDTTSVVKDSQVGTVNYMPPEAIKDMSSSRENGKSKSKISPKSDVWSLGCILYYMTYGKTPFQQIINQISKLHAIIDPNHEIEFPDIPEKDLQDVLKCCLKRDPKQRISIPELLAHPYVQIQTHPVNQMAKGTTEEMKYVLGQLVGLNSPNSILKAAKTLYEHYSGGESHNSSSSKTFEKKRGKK

[14] = target: Serine/threonine-protein kinase PAK 6 (Homo sapiens, UniProt Q9NQU5)
[15] = target: Choline-phosphate cytidylyltransferase A (Homo sapiens, UniProt P49585)
[16] = target: Dual specificity testis-specific protein kinase 1 (Homo sapiens, UniProt Q15569)
[17] = target: Serine/threonine-protein kinase ATR (Homo sapiens, UniProt Q13535)
Note: in the data inactive means no Kd found up to 30 µM.

Chain of Membrane-associated progesterone receptor component 1 (O00264 whole entry): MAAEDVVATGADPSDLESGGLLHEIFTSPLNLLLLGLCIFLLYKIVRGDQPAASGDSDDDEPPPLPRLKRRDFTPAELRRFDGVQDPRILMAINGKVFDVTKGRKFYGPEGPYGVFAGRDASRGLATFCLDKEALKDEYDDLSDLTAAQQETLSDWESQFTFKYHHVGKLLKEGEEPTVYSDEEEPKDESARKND
Chain of Cell division cycle 7-related protein kinase (O00311 whole entry): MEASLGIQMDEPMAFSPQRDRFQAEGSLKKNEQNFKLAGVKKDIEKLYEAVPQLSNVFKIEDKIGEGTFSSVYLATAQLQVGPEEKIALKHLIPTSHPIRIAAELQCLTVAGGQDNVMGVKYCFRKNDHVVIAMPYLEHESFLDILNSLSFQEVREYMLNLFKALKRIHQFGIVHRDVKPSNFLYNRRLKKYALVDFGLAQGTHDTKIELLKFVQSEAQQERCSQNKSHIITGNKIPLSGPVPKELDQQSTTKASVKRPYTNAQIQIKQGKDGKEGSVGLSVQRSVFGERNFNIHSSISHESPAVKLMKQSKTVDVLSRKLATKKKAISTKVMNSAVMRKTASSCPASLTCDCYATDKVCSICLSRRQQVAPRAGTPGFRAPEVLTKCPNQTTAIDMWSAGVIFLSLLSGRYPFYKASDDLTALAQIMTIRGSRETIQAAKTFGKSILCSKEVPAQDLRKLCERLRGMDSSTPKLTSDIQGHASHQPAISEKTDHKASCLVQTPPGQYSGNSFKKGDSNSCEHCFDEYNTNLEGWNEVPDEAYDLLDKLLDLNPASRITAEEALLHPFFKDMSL
Chain of Dual specificity testis-specific protein kinase 1 (Q15569 whole entry): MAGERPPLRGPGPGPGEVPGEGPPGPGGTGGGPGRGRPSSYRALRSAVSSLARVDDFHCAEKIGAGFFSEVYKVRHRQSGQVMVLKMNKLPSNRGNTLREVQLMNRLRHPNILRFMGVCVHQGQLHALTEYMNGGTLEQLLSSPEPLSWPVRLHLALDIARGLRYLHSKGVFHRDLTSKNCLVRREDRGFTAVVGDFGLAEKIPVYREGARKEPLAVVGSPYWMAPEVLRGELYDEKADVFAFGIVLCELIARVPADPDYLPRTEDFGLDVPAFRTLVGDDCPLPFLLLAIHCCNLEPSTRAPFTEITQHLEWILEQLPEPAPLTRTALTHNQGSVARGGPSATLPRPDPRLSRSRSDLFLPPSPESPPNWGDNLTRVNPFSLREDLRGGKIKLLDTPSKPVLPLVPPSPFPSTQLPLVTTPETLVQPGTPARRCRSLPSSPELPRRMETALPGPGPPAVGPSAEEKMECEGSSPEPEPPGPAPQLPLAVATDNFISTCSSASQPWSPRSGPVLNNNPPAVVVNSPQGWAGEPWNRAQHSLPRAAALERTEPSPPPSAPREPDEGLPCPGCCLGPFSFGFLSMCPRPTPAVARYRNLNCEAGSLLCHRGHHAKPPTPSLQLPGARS
Chain of Serine/threonine-protein kinase ATR (Q13535 whole entry): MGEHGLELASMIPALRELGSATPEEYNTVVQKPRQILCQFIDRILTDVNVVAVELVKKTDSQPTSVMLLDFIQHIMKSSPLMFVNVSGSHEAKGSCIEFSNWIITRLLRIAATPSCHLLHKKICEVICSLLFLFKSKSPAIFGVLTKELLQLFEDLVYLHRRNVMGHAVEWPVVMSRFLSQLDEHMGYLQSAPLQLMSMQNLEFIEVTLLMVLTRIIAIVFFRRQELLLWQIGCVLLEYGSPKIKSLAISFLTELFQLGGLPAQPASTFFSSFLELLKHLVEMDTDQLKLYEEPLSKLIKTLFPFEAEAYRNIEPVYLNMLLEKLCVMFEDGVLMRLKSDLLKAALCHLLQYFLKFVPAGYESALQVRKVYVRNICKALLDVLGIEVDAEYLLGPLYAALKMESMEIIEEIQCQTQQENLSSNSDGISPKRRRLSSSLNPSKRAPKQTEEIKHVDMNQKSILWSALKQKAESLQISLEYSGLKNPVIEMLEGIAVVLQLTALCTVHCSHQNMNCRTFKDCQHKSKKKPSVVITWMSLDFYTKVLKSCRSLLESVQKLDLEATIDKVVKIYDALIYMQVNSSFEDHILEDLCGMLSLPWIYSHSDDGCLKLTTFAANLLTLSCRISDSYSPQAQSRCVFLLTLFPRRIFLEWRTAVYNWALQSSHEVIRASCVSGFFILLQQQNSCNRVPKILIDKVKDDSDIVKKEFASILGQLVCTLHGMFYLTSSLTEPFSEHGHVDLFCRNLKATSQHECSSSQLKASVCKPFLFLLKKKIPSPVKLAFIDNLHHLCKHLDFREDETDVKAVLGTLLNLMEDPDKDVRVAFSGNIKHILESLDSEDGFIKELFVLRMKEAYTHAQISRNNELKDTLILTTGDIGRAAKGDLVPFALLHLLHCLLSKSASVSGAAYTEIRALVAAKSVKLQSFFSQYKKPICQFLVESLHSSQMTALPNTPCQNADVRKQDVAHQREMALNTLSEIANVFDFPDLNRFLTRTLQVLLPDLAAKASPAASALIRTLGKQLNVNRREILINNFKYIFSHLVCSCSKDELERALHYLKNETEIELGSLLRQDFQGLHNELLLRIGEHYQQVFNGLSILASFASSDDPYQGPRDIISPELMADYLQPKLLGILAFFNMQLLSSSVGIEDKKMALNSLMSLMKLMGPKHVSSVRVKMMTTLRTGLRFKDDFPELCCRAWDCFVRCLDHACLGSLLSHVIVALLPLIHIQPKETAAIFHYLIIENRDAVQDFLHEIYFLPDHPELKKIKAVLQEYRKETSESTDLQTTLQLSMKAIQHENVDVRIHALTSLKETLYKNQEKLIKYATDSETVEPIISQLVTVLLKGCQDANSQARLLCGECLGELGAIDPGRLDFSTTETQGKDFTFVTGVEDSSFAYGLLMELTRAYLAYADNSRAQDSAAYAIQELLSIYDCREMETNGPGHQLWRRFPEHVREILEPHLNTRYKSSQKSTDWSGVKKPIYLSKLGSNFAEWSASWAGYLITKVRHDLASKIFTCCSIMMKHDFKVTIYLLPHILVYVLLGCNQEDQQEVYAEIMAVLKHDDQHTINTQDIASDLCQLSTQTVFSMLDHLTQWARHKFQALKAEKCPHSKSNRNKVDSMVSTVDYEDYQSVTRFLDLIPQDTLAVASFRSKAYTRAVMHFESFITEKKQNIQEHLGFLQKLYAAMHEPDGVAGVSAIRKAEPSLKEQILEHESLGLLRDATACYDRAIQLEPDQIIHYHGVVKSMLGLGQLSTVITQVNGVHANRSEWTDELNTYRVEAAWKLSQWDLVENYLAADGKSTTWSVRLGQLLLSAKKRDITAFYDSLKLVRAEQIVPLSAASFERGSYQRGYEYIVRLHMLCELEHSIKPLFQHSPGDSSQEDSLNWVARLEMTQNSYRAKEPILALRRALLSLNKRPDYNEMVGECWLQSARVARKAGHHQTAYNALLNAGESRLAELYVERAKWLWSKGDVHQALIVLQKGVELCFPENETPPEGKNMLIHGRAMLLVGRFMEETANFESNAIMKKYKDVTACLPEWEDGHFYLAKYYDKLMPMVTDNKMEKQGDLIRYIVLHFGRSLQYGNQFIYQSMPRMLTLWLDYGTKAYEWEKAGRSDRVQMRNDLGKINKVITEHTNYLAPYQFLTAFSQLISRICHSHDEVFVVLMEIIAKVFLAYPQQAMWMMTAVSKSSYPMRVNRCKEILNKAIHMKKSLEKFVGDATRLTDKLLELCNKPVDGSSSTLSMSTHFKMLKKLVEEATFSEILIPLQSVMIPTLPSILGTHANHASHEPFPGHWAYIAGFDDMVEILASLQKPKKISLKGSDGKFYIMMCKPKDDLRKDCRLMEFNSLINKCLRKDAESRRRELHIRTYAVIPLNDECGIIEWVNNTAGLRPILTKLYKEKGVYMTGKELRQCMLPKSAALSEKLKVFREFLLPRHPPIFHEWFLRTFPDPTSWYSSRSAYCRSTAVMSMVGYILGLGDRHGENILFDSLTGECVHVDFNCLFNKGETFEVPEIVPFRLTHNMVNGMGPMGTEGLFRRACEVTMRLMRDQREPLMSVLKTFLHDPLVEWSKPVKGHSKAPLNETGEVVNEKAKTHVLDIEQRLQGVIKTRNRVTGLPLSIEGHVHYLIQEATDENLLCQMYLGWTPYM
Chain of Serine/threonine-protein kinase PAK 6 (Q9NQU5 whole entry): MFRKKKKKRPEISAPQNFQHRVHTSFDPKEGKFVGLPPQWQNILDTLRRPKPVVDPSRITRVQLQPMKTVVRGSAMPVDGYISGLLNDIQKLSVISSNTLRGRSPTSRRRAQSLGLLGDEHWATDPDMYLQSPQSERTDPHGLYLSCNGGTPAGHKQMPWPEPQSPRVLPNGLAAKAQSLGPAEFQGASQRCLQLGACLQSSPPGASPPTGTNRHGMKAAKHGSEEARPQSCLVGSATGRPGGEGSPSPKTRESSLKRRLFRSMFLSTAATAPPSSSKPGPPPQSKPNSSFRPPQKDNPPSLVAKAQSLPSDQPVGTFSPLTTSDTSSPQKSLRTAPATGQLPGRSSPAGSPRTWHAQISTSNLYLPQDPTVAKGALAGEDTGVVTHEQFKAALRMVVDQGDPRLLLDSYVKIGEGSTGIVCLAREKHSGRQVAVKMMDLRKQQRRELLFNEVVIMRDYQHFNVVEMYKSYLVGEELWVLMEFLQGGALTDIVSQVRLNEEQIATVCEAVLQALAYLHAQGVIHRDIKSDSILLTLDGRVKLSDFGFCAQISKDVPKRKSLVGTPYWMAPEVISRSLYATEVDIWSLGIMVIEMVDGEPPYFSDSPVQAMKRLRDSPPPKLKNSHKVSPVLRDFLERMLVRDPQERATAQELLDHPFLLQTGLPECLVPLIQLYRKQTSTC
Chain of Choline-phosphate cytidylyltransferase A (P49585 whole entry): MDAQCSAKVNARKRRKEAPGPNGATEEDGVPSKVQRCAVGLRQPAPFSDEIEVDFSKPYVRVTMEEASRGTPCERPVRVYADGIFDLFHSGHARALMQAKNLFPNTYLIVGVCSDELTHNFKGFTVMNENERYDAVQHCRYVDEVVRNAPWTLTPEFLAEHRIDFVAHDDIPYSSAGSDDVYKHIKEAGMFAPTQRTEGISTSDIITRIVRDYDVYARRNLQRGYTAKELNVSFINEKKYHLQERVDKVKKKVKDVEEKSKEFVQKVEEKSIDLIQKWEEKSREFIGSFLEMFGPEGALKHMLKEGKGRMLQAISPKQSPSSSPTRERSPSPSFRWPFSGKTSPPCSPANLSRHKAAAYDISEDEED

| Kd [1] | Kd [2] | Kd [3] | Kd [4] | Kd [5] | Kd [6] | Kd [7] | Kd [8] | Kd [9] | Kd [10] | Kd [11] | Kd [12] | Kd [13] | Kd [14] | Kd [15] | Kd [16] | Kd [17] | Structure (SMILES) |
| --- | --- | --- | --- | --- | --- | --- | --- | --- | --- | --- | --- | --- | --- | --- | --- | --- | --- |
| > 30 µM (inactive) | > 30 µM (inactive) | > 30 µM (inactive) | > 30 µM (inactive) | > 30 µM (inactive) | > 30 µM (inactive) | > 30 µM (inactive) | > 30 µM (inactive) | > 30 µM (inactive) | > 30 µM (inactive) | > 30 µM (inactive) | > 30 µM (inactive) | > 30 µM (inactive) | – | – | – | – | CNS(=O)(=O)Nc1nccc(Cc2c(C)c3ccc(Oc4ncccn4)cc3oc2=O)c1F [AVUTOMETINIB] |
| > 30 µM (inactive) | > 30 µM (inactive) | > 30 µM (inactive) | > 30 µM (inactive) | – | – | > 30 µM (inactive) | > 30 µM (inactive) | – | > 30 µM (inactive) | > 30 µM (inactive) | > 30 µM (inactive) | > 30 µM (inactive) | > 30 µM (inactive) | > 30 µM (inactive) | > 30 µM (inactive) | – | CNC(=O)CN1CCC(Oc2cc3c(Nc4cccc(Cl)c4F)ncnc3cc2OC)CC1 [SAPITINIB] |
| > 30 µM (inactive) | > 30 µM (inactive) | – | – | – | – | > 30 µM (inactive) | – | > 30 µM (inactive) | > 30 µM (inactive) | > 30 µM (inactive) | – | > 30 µM (inactive) | > 30 µM (inactive) | > 30 µM (inactive) | > 30 µM (inactive) | – | Cc1cc(Nc2cc(N3CCN(C)CC3)nc(/C=C/c3ccccc3)n2)n[nH]1 [ENMD-2076] |
| > 30 µM (inactive) | – | – | > 30 µM (inactive) | > 30 µM (inactive) | > 30 µM (inactive) | > 30 µM (inactive) | – | > 30 µM (inactive) | > 30 µM (inactive) | > 30 µM (inactive) | > 30 µM (inactive) | 3.92 µM | – | > 30 µM (inactive) | – | – | CNC(=O)c1cc(Oc2ccc(NC(=O)Nc3ccc(Cl)c(C(F)(F)F)c3)c(F)c2)ccn1 [REGORAFENIB] |
| > 30 µM (inactive) | > 30 µM (inactive) | > 30 µM (inactive) | > 30 µM (inactive) | 0.0004 µM (active) | > 30 µM (inactive) | – | > 30 µM (inactive) | > 30 µM (inactive) | – | > 30 µM (inactive) | > 30 µM (inactive) | > 30 µM (inactive) | > 30 µM (inactive) | – | > 30 µM (inactive) | > 30 µM (inactive) | O=C1NC(=O)/C(=C/c2ccc3nccc(-c4ccncc4)c3c2)S1 [GSK-1059615] |
| > 30 µM (inactive) | – | – | > 30 µM (inactive) | > 30 µM (inactive) | > 30 µM (inactive) | > 30 µM (inactive) | > 30 µM (inactive) | > 30 µM (inactive) | > 30 µM (inactive) | – | > 30 µM (inactive) | > 30 µM (inactive) | – | – | > 30 µM (inactive) | – | Cc1c(F)cc(C(=O)NC2CC2)cc1-c1ccc(C(=O)NCC(C)(C)C)cn1 [LOSMAPIMOD] |

Second part, the compound before the results:

| Structure (SMILES) | Kd [1] | Kd [2] | Kd [3] | Kd [4] | Kd [5] | Kd [6] | Kd [7] | Kd [8] | Kd [9] | Kd [10] | Kd [11] | Kd [12] | Kd [13] | Kd [14] | Kd [15] | Kd [16] | Kd [17] |
| --- | --- | --- | --- | --- | --- | --- | --- | --- | --- | --- | --- | --- | --- | --- | --- | --- | --- |
| CC(=O)Nc1cccc(-n2c(=O)n(C3CC3)c(=O)c3c(Nc4ccc(I)cc4F)n(C)c(=O)c(C)c32)c1 [TRAMETINIB] | > 30 µM (inactive) | > 30 µM (inactive) | > 30 µM (inactive) | > 30 µM (inactive) | > 30 µM (inactive) | > 30 µM (inactive) | > 30 µM (inactive) | > 30 µM (inactive) | > 30 µM (inactive) | > 30 µM (inactive) | > 30 µM (inactive) | > 30 µM (inactive) | > 30 µM (inactive) | > 30 µM (inactive) | > 30 µM (inactive) | > 30 µM (inactive) | – |
| CO[C@H]1C[C@@H]2CC[C@@H](C)[C@@](O)(O2)C(=O)C(=O)N2CCCC[C@H]2C(=O)O[C@H]([C@H](C)C[C@@H]2CC[C@@H](OCCO)[C@H](OC)C2)CC(=O)[C@H](C)/C=C(\C)[C@@H](O)[C@@H](OC)C(=O)[C@H](C)C[C@H](C)/C=C/C=C/C=C/1C [EVEROLIMUS] | > 30 µM (inactive) | – | > 30 µM (inactive) | > 30 µM (inactive) | > 30 µM (inactive) | > 30 µM (inactive) | > 30 µM (inactive) | > 30 µM (inactive) | > 30 µM (inactive) | > 30 µM (inactive) | – | > 30 µM (inactive) | > 30 µM (inactive) | – | > 30 µM (inactive) | > 30 µM (inactive) | – |
| CN1CCC(COc2cnc(-c3cccc(Cn4nc(-c5cccc(C#N)c5)ccc4=O)c3)nc2)CC1 [TEPOTINIB] | > 30 µM (inactive) | > 30 µM (inactive) | – | – | – | – | > 30 µM (inactive) | > 30 µM (inactive) | > 30 µM (inactive) | > 30 µM (inactive) | > 30 µM (inactive) | > 30 µM (inactive) | > 30 µM (inactive) | > 30 µM (inactive) | – | > 30 µM (inactive) | > 30 µM (inactive) |
| Cc1ccc(NC(=O)c2ccc(CN3CC[C@H](N(C)C)C3)c(C(F)(F)F)c2)cc1Nc1nccc(-c2cncnc2)n1 [BAFETINIB] | > 30 µM (inactive) | > 30 µM (inactive) | – | > 30 µM (inactive) | > 30 µM (inactive) | > 30 µM (inactive) | – | > 30 µM (inactive) | > 30 µM (inactive) | > 30 µM (inactive) | > 30 µM (inactive) | > 30 µM (inactive) | > 30 µM (inactive) | – | > 30 µM (inactive) | > 30 µM (inactive) | > 30 µM (inactive) |
| Cc1cc2c(F)c(Oc3ncnn4cc(OC[C@@H](C)OC(=O)[C@H](C)N)c(C)c34)ccc2[nH]1 [BRIVANIB ALANINATE] | > 30 µM (inactive) | > 30 µM (inactive) | – | > 30 µM (inactive) | > 30 µM (inactive) | > 30 µM (inactive) | – | > 30 µM (inactive) | – | > 30 µM (inactive) | – | > 30 µM (inactive) | > 30 µM (inactive) | > 30 µM (inactive) | > 30 µM (inactive) | > 30 µM (inactive) | – |
